Data from BindingDB's records for patent US20250248973 (Corbus Pharmaceuticals, 2025).

Molecular target: Isoform 3 of Cannabinoid receptor 1 (Human, UniProt P21554)
Experiment: Biochemical Assay
Description: hCB1/hCB1 b Gai Cyclic AMP (cAMP) Assays: Cells were seeded in a 384-well plate at an appropriate density from frozen cells. The cAMP assays were performed according to the manufacturer's protocol using MULTISCREEN™ TR-FRET cAMP 1.0 No Wash Assay Kit. Cells (hCB1 or hCB1 b) were pre-incubated with customer compounds for 30 minutes at rt followed by addition of EC80 CP55940 concentration and Forskolin. Cells were then incubated for 20 minutes at 37C. The reaction was terminated by sequentially adding sequentially adding MULTISCREEN™ Eu-labeled cAMP and MULTISCREEN™ 650-labeled anti-cAMP antibody in lysis buffer. The plate was then incubated at rt for 30 minutes before reading fluorescent emissions at 620 nm and 665 with excitation at 314 nm on FlexStation III (Molecular Devices).

Sequence of Isoform 3 of Cannabinoid receptor 1 (P21554 as listed by the source): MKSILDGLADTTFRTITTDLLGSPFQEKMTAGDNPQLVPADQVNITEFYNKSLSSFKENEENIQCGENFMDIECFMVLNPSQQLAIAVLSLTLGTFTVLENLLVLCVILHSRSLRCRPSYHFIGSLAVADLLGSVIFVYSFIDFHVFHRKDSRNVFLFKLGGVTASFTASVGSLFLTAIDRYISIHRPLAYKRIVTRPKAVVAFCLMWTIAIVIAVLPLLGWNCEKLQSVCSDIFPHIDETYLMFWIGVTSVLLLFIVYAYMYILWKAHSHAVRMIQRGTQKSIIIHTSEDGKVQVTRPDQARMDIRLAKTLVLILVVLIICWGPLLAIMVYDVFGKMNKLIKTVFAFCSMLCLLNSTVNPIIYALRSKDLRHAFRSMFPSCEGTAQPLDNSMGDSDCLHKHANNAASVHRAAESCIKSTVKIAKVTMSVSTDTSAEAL

## C#Cc1cccc(S(=O)(=O)N=C(NCCS(N)(=O)=O)N2C[C@H](c3ccccc3)C(c3ccc(Cl)cc3)=N2)c1 [US20250248973, Compound 35]
  IC50: < 100 nM
